# Measured values published in ChEMBL document CHEMBL3808308, “Synergistic potentiation of (-)-lomaiviticin A cytotoxicity by the ATR inhibitor VE-821” (Bioorg Med Chem Lett, 2016).
# Columns and labels:
# K562 [1] = assay: Potentiation of (-)-lomaiviticin A-induced cytotoxicity against human K562 cells assessed as (-)-lomaiviticin A ED50 at compound to (-)-lomaiviticin A ratio of 200:1 after 48 hrs by cell titer-glo luminescence assay (reference value: 0.23776 nM); format: functional; details: K562, 48 h, read-out: ED50 (the source's name)
# [2] = Cytotoxicity against human K562 cells assessed as decrease in cell viability after 48 hrs by cell titer-glo luminescence assay; format: cell-based; details: read-out: ED50
# K562 [3] = assay: Potentiation of 7 nM (-)-lomaiviticin A-induced cytotoxicity against human K562 cells assessed as combination index at 1.4 uM after 48 hrs by cell titer-glo luminescence assay; format: functional
# K562 [4] = assay: Cytotoxicity against human K562 cells assessed as decrease in cell viability after 24 to 48 hrs by cell titer-glo luminescence assay; format: cell-based
# K562 [5] = assay: Potentiation of 0.025 nM (-)-lomaiviticin A-induced cytotoxicity against human K562 cells assessed as fraction ratio affected at 0.005 uM after 48 hrs by cell titer-glo luminescence assay; format: functional
# K562 [6] = assay: Potentiation of 0.125 nM (-)-lomaiviticin A-induced cytotoxicity against human K562 cells assessed as fraction ratio affected at 0.025 uM after 48 hrs by cell titer-glo luminescence assay; format: functional
# K562 [7] = assay: Potentiation of 0.25 nM (-)-lomaiviticin A-induced cytotoxicity against human K562 cells assessed as fraction ratio affected at 0.05 uM after 48 hrs by cell titer-glo luminescence assay; format: functional
# K562 [8] = assay: Potentiation of 1.25 nM (-)-lomaiviticin A-induced cytotoxicity against human K562 cells assessed as fraction ratio affected at 0.25 uM after 48 hrs by cell titer-glo luminescence assay; format: functional
# K562 [9] = assay: Potentiation of 2.5 nM (-)-lomaiviticin A-induced cytotoxicity against human K562 cells assessed as fraction ratio affected at 0.5 uM after 48 hrs by cell titer-glo luminescence assay; format: functional
# K562 [10] = assay: Potentiation of 7 nM (-)-lomaiviticin A-induced cytotoxicity against human K562 cells assessed as fraction ratio affected at 1.4 uM after 48 hrs by cell titer-glo luminescence assay; format: functional
# K562 [11] = assay: Potentiation of 0.025 nM (-)-lomaiviticin A-induced cytotoxicity against human K562 cells assessed as combination index at 0.005 uM after 48 hrs by cell titer-glo luminescence assay; format: functional
# K562 [12] = assay: Potentiation of 0.125 nM (-)-lomaiviticin A-induced cytotoxicity against human K562 cells assessed as combination index at 0.025 uM after 48 hrs by cell titer-glo luminescence assay; format: functional
# K562 [13] = assay: Potentiation of 0.25 nM (-)-lomaiviticin A-induced cytotoxicity against human K562 cells assessed as combination index at 0.05 uM after 48 hrs by cell titer-glo luminescence assay; format: functional
# K562 [14] = assay: Potentiation of 1.25 nM (-)-lomaiviticin A-induced cytotoxicity against human K562 cells assessed as combination index at 0.25 uM after 48 hrs by cell titer-glo luminescence assay; format: functional
# K562 [15] = assay: Potentiation of 2.5 nM (-)-lomaiviticin A-induced cytotoxicity against human K562 cells assessed as combination index at 0.5 uM after 48 hrs by cell titer-glo luminescence assay; format: functional
# K562 [16] = assay: Cytotoxicity against human K562 cells assessed as decrease in cell viability up to 2.5 to 10 uM after 24 to 48 hrs by cell titer-glo luminescence assay; format: cell-based
# K562 [17] = assay: Potentiation of 0.025 nM (-)-lomaiviticin A-induced cytotoxicity against human K562 cells assessed as fraction ratio affected at 5 uM after 24 hrs by cell titer-glo luminescence assay; format: functional
# K562 [18] = assay: Potentiation of 0.05 nM (-)-lomaiviticin A-induced cytotoxicity against human K562 cells assessed as fraction ratio affected at 5 uM after 24 hrs by cell titer-glo luminescence assay; format: functional
# K562 [19] = assay: Potentiation of 0.25 nM (-)-lomaiviticin A-induced cytotoxicity against human K562 cells assessed as fraction ratio affected at 5 uM after 24 hrs by cell titer-glo luminescence assay; format: functional
# K562 [20] = assay: Potentiation of 0.5 nM (-)-lomaiviticin A-induced cytotoxicity against human K562 cells assessed as fraction ratio affected at 5 uM after 24 hrs by cell titer-glo luminescence assay; format: functional
# K562 [21] = assay: Potentiation of 2.5 nM (-)-lomaiviticin A-induced cytotoxicity against human K562 cells assessed as fraction ratio affected at 5 uM after 24 hrs by cell titer-glo luminescence assay; format: functional
# K562 [22] = assay: Potentiation of 5 nM (-)-lomaiviticin A-induced cytotoxicity against human K562 cells assessed as fraction ratio affected at 5 uM after 24 hrs by cell titer-glo luminescence assay; format: functional
# K562 [23] = assay: Potentiation of 0.025 nM (-)-lomaiviticin A-induced cytotoxicity against human K562 cells assessed as combination index at 5 uM after 24 hrs by cell titer-glo luminescence assay; format: functional
# K562 [24] = assay: Potentiation of 0.05 nM (-)-lomaiviticin A-induced cytotoxicity against human K562 cells assessed as combination index at 5 uM after 24 hrs by cell titer-glo luminescence assay; format: functional
# K562 [25] = assay: Potentiation of 0.25 nM (-)-lomaiviticin A-induced cytotoxicity against human K562 cells assessed as combination index at 5 uM after 24 hrs by cell titer-glo luminescence assay; format: functional
# K562 [26] = assay: Potentiation of 0.5 nM (-)-lomaiviticin A-induced cytotoxicity against human K562 cells assessed as combination index at 5 uM after 24 hrs by cell titer-glo luminescence assay; format: functional
# K562 [27] = assay: Potentiation of 2.5 nM (-)-lomaiviticin A-induced cytotoxicity against human K562 cells assessed as combination index at 5 uM after 24 hrs by cell titer-glo luminescence assay; format: functional
# K562 [28] = assay: Potentiation of 5 nM (-)-lomaiviticin A-induced cytotoxicity against human K562 cells assessed as combination index at 5 uM after 24 hrs by cell titer-glo luminescence assay; format: functional
# K562 [29] = assay: Potentiation of 0.025 nM (-)-lomaiviticin A-induced cytotoxicity against human K562 cells assessed as fraction ratio affected at 5 uM after 48 hrs by cell titer-glo luminescence assay; format: functional
# K562 [30] = assay: Potentiation of 0.05 nM (-)-lomaiviticin A-induced cytotoxicity against human K562 cells assessed as fraction ratio affected at 5 uM after 48 hrs by cell titer-glo luminescence assay; format: functional
# K562 [31] = assay: Potentiation of 0.25 nM (-)-lomaiviticin A-induced cytotoxicity against human K562 cells assessed as fraction ratio affected at 5 uM after 48 hrs by cell titer-glo luminescence assay; format: functional
# K562 [32] = assay: Potentiation of 0.5 nM (-)-lomaiviticin A-induced cytotoxicity against human K562 cells assessed as fraction ratio affected at 5 uM after 48 hrs by cell titer-glo luminescence assay; format: functional
# K562 [33] = assay: Potentiation of 2.5 nM (-)-lomaiviticin A-induced cytotoxicity against human K562 cells assessed as fraction ratio affected at 5 uM after 48 hrs by cell titer-glo luminescence assay; format: functional
# K562 [34] = assay: Potentiation of 5 nM (-)-lomaiviticin A-induced cytotoxicity against human K562 cells assessed as fraction ratio affected at 5 uM after 48 hrs by cell titer-glo luminescence assay; format: functional
# K562 [35] = assay: Potentiation of 0.025 nM (-)-lomaiviticin A-induced cytotoxicity against human K562 cells assessed as combination index at 5 uM after 48 hrs by cell titer-glo luminescence assay; format: functional
# K562 [36] = assay: Potentiation of 0.05 nM (-)-lomaiviticin A-induced cytotoxicity against human K562 cells assessed as combination index at 5 uM after 48 hrs by cell titer-glo luminescence assay; format: functional
# K562 [37] = assay: Potentiation of 0.25 nM (-)-lomaiviticin A-induced cytotoxicity against human K562 cells assessed as combination index at 5 uM after 48 hrs by cell titer-glo luminescence assay; format: functional
# K562 [38] = assay: Potentiation of 0.5 nM (-)-lomaiviticin A-induced cytotoxicity against human K562 cells assessed as combination index at 5 uM after 48 hrs by cell titer-glo luminescence assay; format: functional
# K562 [39] = assay: Potentiation of 2.5 nM (-)-lomaiviticin A-induced cytotoxicity against human K562 cells assessed as combination index at 5 uM after 48 hrs by cell titer-glo luminescence assay; format: functional
# K562 [40] = assay: Potentiation of 5 nM (-)-lomaiviticin A-induced cytotoxicity against human K562 cells assessed as combination index at 5 uM after 48 hrs by cell titer-glo luminescence assay; format: functional
smiles,measurement,setting,value
Cn1c(=O)n(-c2ccc(C(C)(C)C#N)cc2)c2c3cc(-c4cnc5ccccc5c4)ccc3ncc21 [DACTOLISIB],EC50,K562 [1],20.2 nM
same,CC50 at 48 h,[2],48.9 nM
same,CI,K562 [3],0.3291
same,Activity,K562 [4],Dose-dependent effect
same,Ratio,K562 [5],0.2836
same,Ratio,K562 [6],0.4369
same,Ratio,K562 [7],0.6128
same,Ratio,K562 [8],0.9514
same,Ratio,K562 [9],0.9739
same,Ratio,K562 [10],0.9929
same,CI,K562 [11],8.288
same,CI,K562 [12],2.3513
same,CI,K562 [13],0.8101
same,CI,K562 [14],0.3514
same,CI,K562 [15],0.3901
O=C(CCCCCCC(=O)Nc1ccccc1)NO [VORINOSTAT],CC50 at 48 h,[2],1250 nM
same,Activity,K562 [4],Dose-dependent effect
O=c1cc(N2CCOCC2)oc2c(-c3cccc4c3sc3ccccc34)cccc12,Activity,K562 [16],Non-toxic
same,Ratio,K562 [17],0.1436
same,Ratio,K562 [18],0.1367
same,Ratio,K562 [19],0.1927
same,Ratio,K562 [20],0.2584
same,Ratio,K562 [21],0.7163
same,Ratio,K562 [22],0.9647
same,CI,K562 [23],0.0855
same,CI,K562 [24],0.1033
same,CI,K562 [25],0.2068
same,CI,K562 [26],0.3196
same,CI,K562 [27],0.8596
same,CI,K562 [28],0.9596
same,Ratio,K562 [29],0.4881
same,Ratio,K562 [30],0.5477
same,Ratio,K562 [31],0.5832
same,Ratio,K562 [32],0.6811
same,Ratio,K562 [33],0.9451
same,Ratio,K562 [34],0.9912
same,CI,K562 [35],0.4328
same,CI,K562 [36],0.4461
same,CI,K562 [37],0.8337
same,CI,K562 [38],1.056
same,CI,K562 [39],1.147
same,CI,K562 [40],0.6686
